Counter-ions that a name gives are not always drawn.
Tested on: IL-4 stimulated expression of CD23 in human Ramos B cells (JAK-1 and JAK-3)
Assay: Assay for Ramos B-Cell Line Stimulated with IL-4 (CD23 upregulation, FACS)
Format: cell-based
Conditions: Homo sapiens, Ramos, Ramos B cells stimulated with IL-4, CD23 expression by FACS; read-out: IC50, Example 41
From the text: One means of assaying for such inhibition is detection of the effect of the 2,4-substituted pyrimidinediamine compounds on the upregulation of downstream gene products. In the Ramos/IL4 assay, B-cells are stimulated with the cytokine Interleukin-4 (IL-4) leading to the activation of the JAK/Stat pathway through phosphorylation of the JAK family kinases, JAK1 and JAK3, which in turn phosphorylate and activate the transcription factor Stat-6. […] To study the effect of inhibitors (e.g., the 2,4-substituted pyrimindinediamine compounds described herein) on the JAK1 and JAK3 kinases, human Ramos B cells are stimulated with human IL-4. Twenty to 24 hours post stimulation, cells are stained for upregulation of CD23 and analyzed using flow cytometry (FACS). […] An exemplary assay of this type is described in greater detail in Example 41
B-cells stimulated with cytokine Interleukin-4 (IL-4) activate the JAK/Stat pathway through phosphorylation of the JAK family kinases, JAK-1 and JAK-3, which in turn phosphorylate and activate the transcription factor Stat-6. […] To study the effect of inhibitors on the JAK family kinases, human Ramos B cells are stimulated with human IL-4.
The Ramos B-cell line was acquired from ATCC (ATCC Catalog No. CRL-1596). The cells were cultured in RPMI 1640 (Cellgro, MediaTech, Inc., Herndon, VA, Cat No. 10-040-CM) with 10% fetal bovine serum (FBS), heat inactivated (JRH Biosciences, Inc, Lenexa, Kansas, Cat No. 12106-500M) according to ATCC propagation protocol. Cells were maintained at a density of 3.5×10^5. The day before the experiment, Ramos B-cells were diluted to 3.5×10^5 cells/mL to ensure that they were in a logarithmic growth phase.
Cells were spun down and suspended in RPMI with 5% serum. 5×10^4 cells were used per point in a 96-well tissue culture plate. Cells were pre-incubated with compound or DMSO (Sigma-Aldrich, St. Louis, MO, Cat No. D2650) vehicle control for 1 hour in a 37° C. incubator. Cells were then stimulated with IL-4 (Peprotech Inc., Rocky Hill, NJ, Cat No. 200-04) for a final concentration of 50 units/mL for 20-24 hours. Cells were then spun down and stained with anti-CD23-PE(BD Pharmingen, San Diego, CA, Cat No. 555711) and analyzed by FACS. Detection was performed using a BD LSR I System Flow Cytometer, purchased from Becton Dickinson Biosciences of San Jose, California The IC50 calculated based on the results of this assay are provided in TABLE XII.

Row | Compound | IC50
1 | CCN(CC)S(=O)(=O)c1cc(Nc2ncc(F)c(N(C)c3ccc(Cl)c(Cl)c3)n2)ccc1OC [VI-105, N4-(3,4-dichlorophenyl)-N4-methyl-5-fluoro-N2-[3-(N,N-diethyl)aminosulfonyl-4-methoxyphenyl]-2,4-pyrimidinediamine] | 10.3 µM
2 | Cc1ccc(Nc2ncc(F)c(N[C@@H]3CCN(C(=O)CC#N)C3)n2)cc1S(N)(=O)=O [IX-45, N2-(3-Aminosulfonyl-4-methylphenyl)-N4-[(4R)-1-(2-cyanoacetyl)-pyrrolidin-4-yl)-5-fluoro-2,4-pyrimidinediamine] | 3.62 µM
3 | CCCCNS(=O)(=O)c1cccc(Nc2ncc(F)c(Nc3ccc(C)c(C#N)c3)n2)c1 [VI-96, N2-(3-Butylaminosulfonylphenyl)-N4-(3-cyano-4-methylphenyl)-5-fluoro-2,4-pyrimidinediamine] | 0.803 µM
4 | CNS(=O)(=O)c1ccc(Nc2ncc(F)c(Nc3ccc(Cl)c(C(F)(F)F)c3)n2)cc1OC [IX-52, N4-(4-Chloro-3-trifluoromethylphenyl)-5-fluoro-N2-[4-(N-methyl)aminosulfonyl-3-methoxyphenyl]-2,4-pyrimidinediamine] | 0.117 µM

Further lines, results first:

Row | IC50 | Compound
5 | 2.03 µM | Cc1ccc2cccc(Nc3nc(Nc4ccc(C)c(S(N)(=O)=O)c4)ncc3F)c2n1 [VII-80, N2-(3-Aminosulfonyl-4-methylphenyl)-5-fluoro-N4-(2-methylquinolin-8-yl)-2,4-pyrimidinediamine]
6 | 1.3 µM | CCNC(=O)NCc1ccc(Nc2nc(Nc3ccc(S(N)(=O)=O)cc3)ncc2F)cc1 [III-119, N2-(4-Aminosulfonylphenyl)-N4-(4-ethylaminocarbonylaminomethylphenyl]-5-fluoro-2,4-pyrimidinediamine]

Same assay, conditions: Homo sapiens, Ramos, Ramos B-cell line stimulated with IL-4; CD23 expression by FACS; read-out: IC50, Example 41

Row | IC50 | Compound
7 | 0.612 µM | CN(C)C(=O)COc1ccc(Nc2nc(Nc3cccc(S(N)(=O)=O)c3)ncc2F)cc1 [Compound I-129, N2-(3-Aminosulfonylphenyl)-N4-(4-dimethylaminocarbonylmethoxyphenyl)-5-fluoro-2,4-pyrimidinediamine]
8 | 0.758 µM | Cc1ccc(Nc2ncc(F)c(Nc3ccc(OCC(=O)N4CCOCC4)cc3)n2)cc1S(N)(=O)=O [Compound I-212, N2-(3-Aminosulfonyl-4-methylphenyl)-5-fluoro-N4-[4-(2-morpholin-4-yl-2-oxo-ethoxy)phenyl]-2,4-pyrimidinediamine]
9 | 1.51 µM | NC(=O)COc1ccc(Nc2nc(Nc3cccc(S(N)(=O)=O)c3)ncc2F)cc1CO [Compound I-107, N4-(4-Aminocarbonylmethoxy-3-hydroxymethylphenyl]-N2-(3-aminosulfonylphenyl)-5-fluoro-2,4-pyrimidinediamine]

Same assay, conditions: Ramos B cells stimulated with IL-4, CD23 expression by FACS; read-out: IC50, Example 41

Row | Compound | IC50
10 | Cc1ccc(Nc2ncc(F)c(Nc3ccc4c(c3)N(Cc3ccccn3)C(=O)CO4)n2)cc1S(N)(=O)=O [Compound V-2, N2-(3-Aminosulphonyl-4-methylphenyl)-5-fluoro-N4-[3-oxo-4-(2-pyridylmethy)-benz[1,4]oxazin-6-yl]-2,4-pyrimidinediamine] | 1.18 µM
11 | CNS(=O)(=O)c1cc(Nc2ncc(F)c(Nc3ccc(C(=O)N4CCS(=O)(=O)CC4)cc3)n2)ccc1C [IX-39, N4-[4-(1,1-dioxo-4-thiomorpholinyl)carbonylphenyl]-5-Fluoro-N2-[3-(N-methylaminosulfony)-4-methylphenyl]-2,4-pyrimidinediamine] | 1.4 µM

Other lines, results leading:

Row | IC50 | Compound
12 | 2.49 µM | Cc1ccc(Nc2ncc(F)c(NC3CNCCC3C)n2)cc1S(N)(=O)=O (racemic) [VII-4, Racemic N2-(3-aminosulfonyl-4-methylphenyl)-5-fluoro-N4-(4-methylpiperidin-3-yl)-2,4-pyrimidinediamine]
13 | 0.836 µM | CCCN(Cc1ccc(Nc2nc(Nc3ccc(S(N)(=O)=O)cc3)ncc2F)cc1)C(N)=O [III-125, N2-(4-aminosulfonyl)phenyl-N4-[4-(N-carbamoyl-N-propyl)aminomethyl]phenyl-5-fluoro-2,4-pyrimidinediamine]
14 | 47.1 µM | CC1(C)Oc2cc(Nc3nc(Nc4ccc(S(N)(=O)=O)cc4)ncc3F)cnc2NC1=O [VII-52, N2-(4-Aminosulfonylphenyl)-N4-[2,2-dimethyl-3-oxo-4H-5-pyrid[1,4]oxazin-7-yl]-5-fluoro-2,4-pyrimidinediamine]

Same assay, conditions: Ramos B cells stimulated with IL-4, CD23 expression by FACS; sodium salt; read-out: IC50, Example 41

Row | IC50 | Compound
15 | 1.98 µM | CCC(=O)NS(=O)(=O)c1cc(Nc2ncc(F)c(Nc3ccc(CCC#N)c(C)c3)n2)ccc1C [VI-104, N4-[4-(2-Cyanoethyl)-3-methylphenyl]-5-fluoro-N2-(4-methyl-3-propionylaminosulfonylphenyl)-2,4-pyrimidinediamine Sodium Salt]

Same assay, conditions: Ramos B-cell line stimulated with IL-4; CD23 expression by FACS; read-out: IC50, Example 41

Row | Compound | IC50
16 | CC(=O)NS(=O)(=O)c1cc(Nc2ncc(F)c(Nc3ccc(OCC#N)cc3)n2)ccc1C [Compound I-36, N2-(3-Acetylaminosulfonyl-4-methyl)phenyl-N4-(4-cyanomethyleneoxy)phenyl-5-fluoro-2,4-pyrimidinediamine] | 8.8 µM
17 | NC(=O)COc1cccc(Nc2nc(Nc3cccc(S(N)(=O)=O)c3)ncc2F)c1 [Compound I-88, N4-(3-Aminocarbonylmethoxy)phenyl-N2-(3-aminosulfonyl)phenyl-5-fluoro-2,4-pyrimidinediamine] | 1.08 µM
18 | NC(=O)COc1cccc(Nc2nc(Nc3ccc(S(N)(=O)=O)cc3)ncc2F)c1 [Compound I-91, N4-(3-Aminocarbonylmethoxy)phenyl-N2-(4-aminosulfonyl)phenyl-5-fluoro-2,4-pyrimidinediamine] | 2.03 µM
19 | 5-Fluoro-N4-(4-[3-methyl-1,2,4-oxadiazol-5-yl]methyleneoxyphenyl)-N2-(5-piperidinesulfonylphenyl)-2,4-pyrimidinediamine [Compound I-272] | 0.788 µM
20 | COc1cc(Nc2nc(Nc3ccc(C)c(S(N)(=O)=O)c3)ncc2F)ccc1NC(=O)CC#N [Compound I-85, N2-(3-Aminosulfonyl-4-methylphenyl)-5-fluoroN4-[3-methoxy-4-(N-cyanoacetyl)aminophneyl]-2,4-pyrimidinediamine] | 0.791 µM
21 | CCC(=O)NS(=O)(=O)c1cc(Nc2ncc(F)c(Nc3ccc(OCc4cc(C)on4)cc3)n2)ccc1C [Compound I-228, 5-Fluoro-N4-[4-(5-methylisoxazol-3-yl)methyleneoxyphenyl]-N2-(4-methyl-3-propionylaminosulfonylphenyl)-2,4-pyrimidinediamine] | 3.81 µM
22 | NS(=O)(=O)c1ccc(Nc2ncc(F)c(Nc3cccc(OCc4cccnc4)c3)n2)cc1 [Compound I-185, N2-(4-Aminosulfonylphenyl)-5-fluoro-N4-[3-(3-pyridinyl)methyleneoxyphenyl]-2,4-pyrimidinediamine] | 0.298 µM
23 | Cc1cc(COc2ccc(N(C)c3nc(Nc4ccc(C)c(S(N)(=O)=O)c4)ncc3F)cc2F)no1 [Compound I-226, N2-(3-Aminosulfonyl-4-methylphenyl)-5-fluoro-N4-[3-fluoro-4-(5-methylisoxazol-3-yl)methyleneoxyphenyl]-N4-methyl-2,4-pyrimidinediamine] | 0.498 µM

Continued, values first:

Row | IC50 | Compound
24 | 1.01 µM | CCn1nccc1NC(=O)Cc1ccc(Nc2nc(Nc3cccc(S(N)(=O)=O)c3)ncc2F)cc1 [III-51, N2-(3-Aminosulfonylphenyl)-N4-[(1-ethylpyrazolyl-5-aminocarbonylmethylene)phenyl]-5-fluoro-2,4-pyrimidinediamine]
25 | 3.23 µM | CCC(=O)NS(=O)(=O)c1cccc(Nc2ncc(F)c(Nc3ccc(Cc4ccncc4)cc3)n2)c1 [III-68]

Same assay, conditions: Ramos B-cell line stimulated with IL-4; CD23 expression by FACS; sodium salt; read-out: IC50, Example 41

Row | IC50 | Compound
26 | 4.63 µM | CCC(=O)NS(=O)(=O)c1cc(Nc2ncc(F)c(Nc3ccc(OCC#N)cc3)n2)ccc1C [Compound I-31, N4-(4-Cyanomethyleneoxy)phenyl-5-fluoro-N2-(4-methyl-3-propionylaminosulfonyl)phenyl-2,4-pyrimidinediamine sodium salt]
27 | 0.917 µM | CC(=O)NS(=O)(=O)c1cccc(Nc2ncc(F)c(Nc3ccc(OCc4cc(C)on4)cc3)n2)c1 [Compound I-243, N2-(3-Acetamidosulfonylphenyl)-5-fluoro-N4-[4-(5-methylisoxazol-3-yl)methyleneoxyphenyl]-2,4-pyrimidinediamine sodium salt]

Source: patent US11827628B2, “Compositions and methods for inhibition of the JAK pathway” (Rigel Pharmaceuticals, Inc., priority 2005, dated 2023)
